Positions of bridges follow the written chain, without caps; N, C: chain ends. Non-standard residues stand in square brackets, D forms with d. Residues, ends and D or L forms follow the SMILES beside them.
Tests used:
[1] = Stability against acid hydrolysis; assay type: physicochemical; settings: pH 2.0 for 2 hrs at 37°C
Source text: For example, to prepare a peptide 3 derivative, peptide 3(3-12)[MCP-1] was modified according to Jameson et al. (Nature, 368, 744 (1994)), which yielded CRD-Cys13Leu4Ile11peptide 3(3-12)[MCP-1] (Figure 3).

[2] = test system: SDF-1 induced calcium flux; experiment: Intracellular calcium flux, SDF-1 as agonist; assay type: cell-based
[3] = test system: antigen specific antibody recall response; experiment: Antigen (scFv) recall response, safety and serum levels after single i.v. dose; assay type: in vivo, Cynomolgus monkeys
Experimental: Cynomolgus monkeys were immunized with antigen that is a single chain Fv (scFv) protein. Each animal previously received 3 i.v. injections of the antigen and all developed high serum titers. Five animals were randomly divided into 2 groups. Two animals served as PBS treated controls and 3 were treated i.v. with 50 mg/kg CRD-Leu4Ile11Cys13 peptide 3(3-12)[MCP-1]. Thirty minutes following CRD-Leu4Ile11Cys13 peptide 3(3-12)[MCP-1] treatment all animals were challenged i.v. with 3.5 mg/kg antigen. In addition, animals were challenged intradermal with each of the following in a volume of 50 µl:PBS; 50 µg antigen; 5 µg antigen; 0.5 µg antigen; 500 ng MCP-1; or 50 ng LPS. Serum was collected at 10 minutes, 30 minutes, 60 minutes, 4 hours, and 24 hours. Animals were sacrificed 24 hours after CRD-Leu4Ile11Cys13peptide 3(3-12)[MCP-1] injection and complete necropsy performed and tissues fixed for histopathology. Fixed and frozen skin samples were harvested for histopathology and immunohistochemistry. Blood, spleen, and lymph node were harvested for assessment of cell function in migration assay, proliferation assay, and antigen specific antibody and cytokine recall. Blood was also analyzed pre- and post-CRD-Leu4Ile11Cys13 peptide 3(3-12)[MCP-1] injection for hematology parameters and serum chemistry. Serum levels were evaluated by an LC-MS method (limit of quantitation = 1 µg/ml) pre-treatment and then at 10 minutes, 30 minutes, 60 minutes, 4 hours and 20-24 hours after injection. Urinalysis was performed pre- and post-CRD-Leu4Ile11Cys13 peptide 3(3-12)[MCP-1] injection.

[4] = test system: TGFβ1 induced THP-1 migration; experiment: THP-1 trans-well migration assay, TGFβ1 as non-chemokine control chemoattractant; assay type: cell-based, human; settings: for % inhibition at 100 µM versus TGFβ1: THP-1 migration, agent at 100 µM, n.s. = no statistically significant inhibition
Experimental: Any method suitable for counting cells can be used, for example, counting with a hemocytometer, incubation of the cells with MTT (see above), or FACS analysis. A negative control assay is also performed, using TGF-β or another non-chemokine chemoattractant (e.g., IL1β or TNFα). To assess whether the agent is cytotoxic, the same concentrations of agent are incubated with THP-1 cells. Agents which 1) are not cytotoxic at levels which inhibit migration, 2) are ineffective at inhibiting the negative control-induced migration, and 3) reduce or inhibit chemokine-induced THP-1 migration, are agents which fall within the scope of the invention.
For this assay, THP-1 cells were maintained at a density of 4 × 10^5 cells per ml in RPMI-1640 supplemented with 10% fetal calf serum + 20 µM 2-mercaptoethanol. Chemotaxis was induced in a 96-well disposable chemotaxis chamber fitted with a 5 µM polycarbonate filter (PVP free, ChemoTX, Neuroprobe Inc., Cabin John). Twenty-nine µl of chemoattractant (recombinant human chemokine; 50 ng/ml, i.e., 5.9 nM) or control (100 ng/ml TGFβ) was added to the lower compartment of each well. The framed filter was aligned with the holes in the corner of the filter frame and placed over the wells.
Five × 10^4 THP-1 cells in 25 µl of RPMI-1640 were added to the upper compartment. Peptides were dissolved in Milli Q water and then serially diluted in culture medium. […]
After incubation, the cells were gently removed from the top of the filter with a pipette, 20 µl of 20 mM EDTA in PBS was added into each top well, and the mixture was incubated for 20 minutes at 4°C. […] A standard curve was prepared to accurately quantify the number of THP-1 cells that had migrated. […] Absorbance of converted dye was measured at a wavelength of 595 nm using an ELISA plate reader. The number of cells that had migrated in each well was determined by interpolation of the standard curve.
To investigate the receptor specificity of peptide 3 inhibition, the ED50 was determined for peptide 3(1-12)[MCP-1] […]

Structure (SMILES): CC[C@@H](C)[C@H]1NC(=O)[C@@H](CCC(N)=O)NC(=O)[C@H](N)CSSC[C@H](C(N)=O)NC(=O)[C@@H](CC(C)C)NC(=O)[C@@H](CC(=O)O)NC(=O)[C@H]2CCCN2C(=O)[C@@H](CCCCN)NC(=O)[C@@H](CCC(N)=O)NC(=O)[C@@H](CCCCN)NC(=O)[C@@H](Cc2c[nH]c3ccccc23)NC1=O (H-[dC][dQ][dI][dW][dK][dQ][dK][dP][dD][dL][dC]-NH2; disulfide 1-11)
- degradation by acid hydrolysis [1]: < 10%
- SDF-1 induced calcium flux (in words) [2]: did block
- hematology and serum chemistry (in words) ([3]; 50 mg/kg i.v.): No clinically significant changes
- period with detectable drug levels in serum after treatment ([3]; 50 mg/kg i.v.): 4 h
- antigen specific antibody in recall responses of splenocytes, lymph node cells and PBL (in words) ([3]; single i.v. dose 50 mg/kg): lowest detectable levels of antigen specific antibody

Structure (SMILES): CC[C@H](C)[C@H](NC(=O)[C@H](C)NC(=O)[C@H](CC(=O)O)NC(=O)[C@@H]1CCCN1C(=O)[C@H](CCC(N)=O)NC(=O)[C@H](C)N)C(=O)N[C@@H](CC(N)=O)C(=O)N[C@@H](C)C(=O)N1CCC[C@H]1C(=O)N[C@H](C(=O)N[C@H](C(=O)N[C@@H](CS)C(=O)N[C@@H](CS)C(=O)O)[C@@H](C)O)C(C)C [Peptide 1] (H-AQPDAINAPVTCC-OH; N-terminus and C-terminus assumed)
- % inhibition at 100 µM versus TGFβ1 [4]: n.s.
- % inhibition at 100 µM versus TGFβ1 ([4]; listed as peptide 1[MCP-1]): did not significantly inhibit
- ED50 (µM) versus TGFβ1 ([4]; inhibition of THP-1 migration, n.s. = not statistically significant): n.s.
